Assay results reported in patent publication US20250223259A1, “PROTEASE INHIBITORS FOR TREATING OR PREVENTING CORONAVIRUS INFECTION” (Merck Sharp & Dohme LLC, priority 2022, published 2025).

Molecular target: SARS2 coronavirus 3CL protease (Severe acute respiratory syndrome coronavirus 2 (2019-nCoV) (SARS-CoV-2), UniProt P0DTD1)
Assay: SARS2 Coronavirus 3CL Protease Assay (FRET)
Type: biochemical
Details: SARS2 3CLPro FRET assay; 5 nM enzyme, 30 min pre-incubation with compound, 15 uM peptide substrate, 4 h room temperature
Method: The enzymatic activity of SARS2 coronavirus 3CL protease was determined in a FRET (fluorescence resonance energy transfer)-based assay measuring the cleavage of a peptide substrate by recombinantly expressed and purified enzyme. Cleavage of the peptide SEQ ID NO:1 (CPC Scientific) by SARS2 3CL protease was measured in reaction buffer (50 mM Hepes pH 7.5, 0.01% Triton X-100, 0.01% BSA, 2 mM DTT). SARS2 3CL protease (5 nM final concentration) was pre-incubated with compound for 30 minutes before reaction initiation with peptide substrate (15 uM final concentration). Room temperature reactions (4 h) were quenched by addition of a high dose of inhibitor and read on an appropriate plate reader (excitation wavelength=495 nm, emission wavelength=520 nm). Data were analyzed by a standard 4 parameter fit to determine IC50 values.

Question: For COC(=O)N[C@H](C(=O)N1C[C@@H]2CC(C)(C)[C@@H]2[C@H]1C(=O)N[C@@H](CCC(C)(F)F)C(=O)C(=O)NC1CC1)C(C)(C)C [Example 25, Methyl ((S)-1-((1R,2S,5R)-2-(((S)-1-(cyclopropylamino)-6,6-difluoro-1,2-dioxoheptan-3-yl)carbamoyl)-7,7-dimethyl-3-azabicyclo[3.2.0]heptan-3-yl)-3,3-dimethyl-1-oxobutan-2-yl)carbamate], which IC50 is on record?
Answer: 8.7 nM

Question: How did the IC50 turn out when COC(=O)N[C@H](C(=O)N1C[C@H]2[C@@H]([C@H]1C(=O)N[C@@H](CCC(C)(F)F)C(=O)C(=O)NC1CC1)C21CCCC1)C(C)(C)C [Example 38, Methyl ((S)-1-((1R,2S,5S)-2-(((S)-1-(cyclopropylamino)-6,6-difluoro-1,2-dioxoheptan-3-yl)carbamoyl)-3-azaspiro[bicyclo[3.1.0]hexane-6,1′-cyclopentan]-3-yl)-3,3-dimethyl-1-oxobutan-2-yl)carbamate] was run?
Answer: 9.7 nM

Question: How did the IC50 turn out when COC(=O)N[C@H](C(=O)N1C[C@@H]2CCCC[C@@H]2C[C@H]1C(=O)N[C@@H](CCC(C)(F)F)C(=O)C(=O)NC1CC1)C(C)(C)C [Example 26, Methyl ((S)-1-((3S,4aR,8aR)-3-(((S)-1-(cyclopropylamino)-6,6-difluoro-1,2-dioxoheptan-3-yl)carbamoyl)octahydroiso-quinolin-2(1H)-yl)-3,3-dimethyl-1-oxobutan-2-yl)carbamate] was run?
Answer: 22 nM

Question: For COC(=O)N[C@H](C(=O)N1C[C@H]2[C@H](CCC2(F)F)[C@H]1C(=O)N[C@@H](CCC(C)(F)F)C(=O)C(=O)NC1CC1)C(C)(C)C [Example 33, Methyl ((S)-1-((1S,3aR,6aS)-1-(((S)-1-(cyclopropylamino)-6,6-difluoro-1,2-dioxoheptan-3-yl)carbamoyl)-4,4-difluorohexahydrocyclopenta[c]pyrrol-2(1H)-yl)-3,3-dimethyl-1-oxobutan-2-yl)carbamate], which IC50 is on record?
Answer: 9.7 nM

Question: With COC(=O)N[C@H](C(=O)N1CCC(C2CC2)C1C(=O)N[C@@H](CCC(C)(F)F)C(=O)C(=O)NC1CC1)C(C)(C)C (single isomer, unassigned) [Example 23, Methyl ((S)-1-((2(S or R),3(R or S))-3-cyclopropyl-2-(((S)-1-(cyclopropylamino)-6,6-difluoro-1,2-dioxoheptan-3-yl)carbamoyl)pyrrolidin-1-yl)-3,3-dimethyl-1-oxobutan-2-yl)carbamate] as the compound, how does the IC50 read?
Answer: 10 nM

Question: How did the IC50 turn out when COC(=O)N[C@H](C(=O)N1CC[C@@H](C(F)(F)F)C[C@H]1C(=O)N[C@@H](CCC(C)(F)F)C(=O)C(=O)NC1CC1)c1ccccc1 [Example 65, Methyl ((S)-2-((2S,4R)-2-(((S)-1-(cyclopropylamino)-6,6-difluoro-1,2-dioxoheptan-3-yl)carbamoyl)-4-(trifluoromethyl)piperidin-1-yl)-2-oxo-1-phenylethyl)carbamate] was run?
Answer: 24 nM

Question: How did the IC50 turn out when COC(=O)N[C@H](C(=O)N1C[C@H]2[C@@H]([C@H]1C(=O)N[C@@H](CCC(C)(F)F)C(=O)C(=O)NC1CC1)C2(C)C)C(C)(C)C [Example 6, Methyl ((S)-1-((1R,2S,5S)-2-(((S)-1-(cyclopropylamino)-6,6-difluoro-1,2-dioxoheptan-3-yl)carbamoyl)-6,6-dimethyl-3-azabicyclo[3.1.0]hexan-3-yl)-3,3-dimethyl-1-oxobutan-2-yl)carbamate] was run?
Answer: 17 nM

Question: How did the IC50 turn out when COC(=O)N[C@H](C(=O)N1C(C(=O)N[C@@H](CCC(C)(F)F)C(=O)C(=O)NC2CC2)[C@H]2CC[C@@H]1C2)C(C)(C)C (single isomer, unassigned) [Example 77, Methyl ((S)-1-((1R, 3(R or S),4S)-3-(((S)-1-(cyclopropylamino)-6,6-difluoro-1,2-dioxoheptan-3-yl)carbamoyl)-2-azabicyclo[2.2.1]heptan-2-yl)-3,3-dimethyl-1-oxobutan-2-yl)carbamate] was run?
Answer: 133 nM

Question: COC(=O)N[C@H](C(=O)N1CCC2(CC2)C[C@H]1C(=O)N[C@@H](CCC(C)(F)F)C(=O)C(=O)NC1CC1)C(C)(C)C [Example 29, Methyl ((S)-1-((S)-5-(((S)-1-(cyclopropylamino)-6,6-difluoro-1,2-dioxoheptan-3-yl)carbamoyl)-6-azaspiro[2.5]octan-6-yl)-3,3-dimethyl-1-oxobutan-2-yl)carbamate] was tested. Which IC50 did it give?
Answer: 7.7 nM

Question: For COC(=O)N[C@H](C(=O)N1CC[C@@H](C)C[C@H]1C(=O)N[C@@H](CCC(C)(F)F)C(=O)C(=O)NC1CC1)C(C)(C)C [Example 96, methyl ((S)-1-((2S,4R)-2-(((S)-1-(cyclopropylamino)-6,6-difluoro-1,2-dioxoheptan-3-yl)carbamoyl)-4-methylpiperidin-1-yl)-3,3-dimethyl-1-oxobutan-2-yl)carbamate], which IC50 is on record?
Answer: 15 nM

Question: Which IC50 does the source give for COC(=O)N[C@H](C(=O)N1CC[C@@H](C(F)(F)F)C[C@H]1C(=O)N[C@@H](CCC(C)(F)F)C(=O)C(=O)NC1CC1)C(C)(C)C [Example 61, Methyl ((S)-1-((2S,4R)-2-(((S)-1-(cyclopropylamino)-6,6-difluoro-1,2-dioxoheptan-3-yl)carbamoyl)-4-(trifluoromethyl)piperidin-1-yl)-3,3-dimethyl-1-oxobutan-2-yl)carbamate] here?
Answer: 16 nM

Question: For CCNC(=O)C(=O)[C@H](CCC(C)(F)F)NC(=O)[C@@H]1CC2(CCCCC2)CN1C(=O)[C@@H](NC(=O)OC)C(C)(C)C [Example 8, Methyl ((S)-1-((S)-3-(((S)-1-(ethylamino)-6,6-difluoro-1,2-dioxoheptan-3-yl)carbamoyl)-2-azaspiro[4.5]decan-2-yl)-3,3-dimethyl-1-oxobutan-2-yl)carbamate], which IC50 is on record?
Answer: 18 nM

Question: How did the IC50 turn out when COC(=O)N[C@@H](Cc1noc(C)n1)C(=O)N1C[C@H]2[C@@H]([C@H]1C(=O)N[C@@H](CCC(C)(F)F)C(=O)C(=O)NC1CC1)C2(C)C [Example 123, methyl ((S)-1-((1R,2S,5S)-2-(((S)-1-(cyclopropylamino)-6,6-difluoro-1,2-dioxoheptan-3-yl)carbamoyl)-6,6-dimethyl-3-azabicyclo[3.1.0]hexan-3-yl)-3-(5-methyl-1,2,4-oxadiazol-3-yl)-1-oxopropan-2-yl)carbamate] was run?
Answer: 29 nM

Question: With CNC(=O)C(=O)[C@H](CCC(C)(F)F)NC(=O)[C@@H]1[C@H]2CCC[C@H]2CN1C(=O)[C@@H](NC(=O)OC)C(C)(C)O [Example 117, methyl ((S)-1-((1S,3aR,6aS)-1-(((S)-6,6-difluoro-1-(methylamino)-1,2-dioxoheptan-3-yl)carbamoyl)hexahydrocyclopenta[c]pyrrol-2(1H)-yl)-3-hydroxy-3-methyl-1-oxobutan-2-yl)carbamate] as the compound, how does the IC50 read?
Answer: 14 nM

Question: With CNC(=O)C(=O)[C@H](CCC(C)(F)F)NC(=O)[C@@H]1[C@H]2CCC[C@H]2CN1C(=O)[C@@H](NC(=O)OCC(F)(F)F)C(C)(C)C [Example 122, 2,2,2-trifluoroethyl ((S)-1-((1S,3aR,6aS)-1-(((S)-6,6-difluoro-1-(methylamino)-1,2-dioxoheptan-3-yl)carbamoyl)hexahydrocyclopenta[c]pyrrol-2(1H)-yl)-3,3-dimethyl-1-oxobutan-2-yl)carbamate] as the compound, how does the IC50 read?
Answer: 34 nM

Question: For CNC(=O)C(=O)[C@H](CCC(C)(F)F)NC(=O)C1CC(C(F)(F)F)CCN1C(=O)C(NC(=O)OC)C12CC(F)(C1)C2 (single isomer, unassigned) [Example 115, methyl ((R or S)-2-((2(S or R),4(R or S))-2-(((S)-6,6-difluoro-1-(methylamino)-1,2-dioxoheptan-3-yl)carbamoyl)-4-(trifluoromethyl)piperidin-1-yl)-1-(3-fluorobicyclo[1.1.1]pentan-1-yl)-2-oxoethyl)carbamate], which IC50 is on record?
Answer: 35 nM
